Assay results: PMC4949444 (Scientific Reports, 2016)

Assays:
[1] = tested on: 3NP-lesioned C57BL/6 mice; assay: 3-nitropropionic acid (3NP) model of Huntington's disease; type: in vivo; conditions: for COX-2 (2expΔΔct) / IL-6 (2expΔΔct) / TNF-α (2expΔΔct): striatum mRNA, mean ± SEM n=6; for COX-2 (2expΔΔct) / IL-6 (2expΔΔct) / TNF-α (2expΔΔct) / % GSH / % SOD activity / %Catalase activity: substance alone; for % GSH / % SOD activity / %Catalase activity: striatum, % of vehicle-treated control
Protocol: Figure 7 VCE-003.2 is neuroprotective in 3NP-intoxicated mice. (a) Behavioural score was determined 12 hours after 3NP intoxication. Mice were treated with VCE-003.2 (20 mg/Kg) alone or combined with T0070907 (5 mg/kg) as indicated. Animals were also treated separately with either VCE-003.2 or T0070907 alone. Hind limb clasping, general locomotor activity, hind limb dystonia and kyphosis were rated from 0 to 2 based on severity (score 0 indicates normal function and 2 indicates the most severe affected function). Values are expressed as means ± SEM (n = 6). (b) Representative images of Nissl staining performed on coronal striatal brain sections from the same mice groups. Photomicrographs of NeuN (Bar size, 50 μm) Iba-1 and glial fibrillary acidic protein (GFAP) immunostained sections through the different group of mice are also shown. (c) Quantification of the different markers was performed with Image J software. Total average number of neurons (NeuN^+), microglia (Iba1^+) and astrocytes (GFAP^+) is shown. Values are expressed as means ± SEM (n = 6). *p < 0.05, **p < 0.01, ***p < 0.001 vs. Vehicle; ^#p < 0.05, ^##p < 0.01, ^###p < 0.001 vs. 3NP; †p < 0.05, ^††p < 0.01, ^†††p < 0.001 vs. the 3NP + VCE-003.2 group.
Mice were housed under standard conditions (12-h light/dark cycle) in groups with access to food and water ad libitum. All experiments were performed in accordance with European Union guideline and approved by the Animal Research Ethic Committee of Córdoba University (2014PI/017) (3NP model) and by the Animal Research Ethic Committee of Complutense University (CEA-UCM 73/2012) (QA model). Procedures were designed to minimize the number of animals used and their suffering. Excitotoxicity was induced by intrastriatal quinolinic acid (QA) administration (100 nmol in 1 μL PBS solution, unilaterally) as previously described[41] at the following coordinates: +0.6 posterior to bregma, +1.85 medio-lateral and -2.7 dorso-ventral to dura, in 12-week-old CD1 male mice (Harlan Ibérica, Barcelona, Spain). Pharmacological manipulation with VCE-003.2 (10 mg/kg body weight) was performed i.p. daily in 2% Tween 20 and 3% DMSO in saline buffer until sacrifice. Control animals received the corresponding vehicle injections. Motor function was assessed by RotaRod analysis conducted with acceleration from 4 to 40 rpm over a period of 570 s in an LE8200 device (Harvard Apparatus, Barcelona, Spain). […] 3NP-treated animals and their respective non-lesioned controls (injected with PBS) were used for pharmacological studies with VCE-003.2. Treatments consisted of 4 i.p. injections every 24 h with 20 mg/kg VCE-003.2 or vehicle (4% DMSO plus 6,2% Tween 20 in saline buffer), with the first and the last injections 30 min before the first and the last injections of 3NP, respectively. In some experiments, mice received a combination of VCE-003.2 and the PPARγ antagonist T0070907 (5 mg/kg) injected 15 minutes before VCE-003.2. In 3NP-lesioned mice, motor activity, hindlimb clasping, dystonia, and truncal dystonia were evaluated following previously described procedures. All behavioural tests were conducted prior to drug injections to avoid acute effects of the compounds under investigation and all animals were euthanized 12 h after the last injection of 3NP and their brains removed. The right hemispheres were used to dissect the striatum which was frozen in RNAlater (Sigma-Aldrich) and stored at −80 °C for biochemical analyses. The left hemispheres were fixed in fresh 4% paraformaldehyde (in 0.1 M PBS) for 48 h at 4 °C and embedded in paraffin wax for staining and immunohistochemical analysis. In all experiments, at least 6 animals were used per experimental group.
Free floating coronal brain slices ([…]) were processed as previously described. […]

Keap1/Nrf2 pathway = Keap1/Nrf2 pathway activation (unpublished results)
3NP-lesioned mice = conditions: cited from earlier work
N2a cells [2] = assay: Reactive oxygen species production in N2a cells (CM-H2DCFDA); type: cell-based; conditions: 2 hours
Protocol: (§1) Determination of ROS: N2a cells were seeded at 25x 10^3 cells/ml in 96-well plates and incubated with 0.25 ȝM 5-(and-6 )-chloro meth yl-2ƍ,7ƍ-dichlorodihydrofluorescein diacetate acet yl ester (C M-H 2 DCFDA) for 20 minutes at 37°C. Then, the cells were treated with either VCE-003 or VCE-003.2 for 2 hours. Cells exposed to pro-oxidant tert-Butyl h ydroperoxide (TBHP) were used as positive control. H 2 DCFDA oxidation was detected using an Incuc yteTM Live-Cell Imaging S ystem (Hertfordshire, UK).
Supplementary Figure S1. Non-elect rophilic activity for VCE-003.2. (a) Reactive ox ygen species production. N2a cells were stained with CM-H2DCFDA and treated with VCE-003 or VCE-003.2 for 2 hours. Then, reactive ox ygen sp ecies were measured b y In cu c yt e TM Liv e-Cell Im agin g S ystem. Results are ex pressed as m ean of t otal integrated intensity (ROS positive cells) ± S.D. (b) Effect on Nrf2 transcriptional activity.
VCE-003 treatment vers us Vehicle treated cells.

[3] = Cysteamine recovery assay (thiol trapping)
Protocol: cysteamine to form polar and not extractable adducts.
as §1
(§2) Nrf2 transcriptional assay: To study Nrf2 transcriptional activity N2a cells were seeded (105/ml) in 24-well plates and transientl y transfected with the plasmid NQO1-ARE-Luc using Roti©-Fect following the manufacturer’s instructions (Carl Roth, Karlsruhe, German y). After 24 hours, cells were incubated wi th the compounds at the concentrations indicated during 6 hours and the luciferase activit y was determined using an Autolumat LB 953 (EG&G Berthold, Bad Wildbad, Germany). Protein content was determined b y the Bradford method to calculate R LU/Pg of protein and the results were expressed as a fold induction over untreated cells.

Nrf2 pathway = assay: Nrf2 transcriptional assay (NQO1-ARE-Luc) in N2a cells; type: cell-based; conditions: 6 hours
Protocol: as §2
Supplementary Figure S1. Non-elect rophilic activity for VCE-003.2. (a) Reactive ox ygen species production.
In cu c yt e TM Liv e-Cell Im agin g S ystem. Results are ex pressed as m ean of t otal integrated intensity (ROS positive cells) ± S.D. (b) Effect on Nrf2 transcriptional activity. N2a cells were transientl y trans fected with the NQO1-ARE-Luc plasmid and incubated with the indicated compound concentrations for 6 hours prior to luciferase activit y determination.
Results are expressed as the fold induction ± S.D. relative to untreated control. All the results are representative of at least three independent experiments. Statistics: **p<0.01 VCE-003 treatment vers us Vehicle treated cells.

N2a cells [4] = assay: N2a cytotoxicity assay (MTT); type: cell-based; conditions: 24 hours
Protocol: Figure 1 VCE-003.2 synthesis and characterization. (a) Schematic representation of VCE-003.2 synthesis. […] The indicated concentrations were tested and results were plotted to obtain the polynomial trend on a logarithmic range. IC50 values are indicated within the graph. […]. HEK293 cells were co-transfected with GAL4-PPARγ and GAL4-luc and incubated with the indicated compound concentrations for 6 hours prior to luciferase activity determination. Results are expressed as the fold induction ± S.D. relative to untreated control. (d) N2a cells were incubated with VCE-003 and VCE-003.2 as indicated during 24 hours and cell viability was determined by the MTT assay. Results are expressed as percentage of cell viability against the negative control (100%). (e) N2a cells were pre-treated with the compounds for 30 min and incubated during 24 h with 15 mM glutamate and cell viability determined by MTT. Results are expressed as percentage of cell viability against the negative control (100%). All experiments are shown as mean ± S.D. from at least three independent experiments. Statistics: *^,#,†p < 0.05, **^,##,††p < 0.01 and ***^,###p < 0.001. […] | Briefly, N2a cells were seeded at a density of 1 × 10^3 cells/well in 96-well plates, treated with increasing concentrations of VCE-003 or VCE-003.2 for 24 hours and cell viability was measured by the MTT method. […]. […]

Row | Structure (SMILES) | behavioural score, substance alone ([1]; mice given the substance alone) | COX-2 (2expΔΔct) [1] | IL-6 (2expΔΔct) [1] | TNF-α (2expΔΔct) [1] | % GSH [1] | % SOD activity [1] | %Catalase activity [1] | other results
1 | O=C(O)CC[N+](=O)[O-] [3NP, 3-nitropropionic acid, reference compound] | high scores in hindlimb clasping, locomotor activity, hindlimb dystonia and kyphosis | 4.69 ± 0.09^* 2expΔΔct | 4.28 ± 0.08^* 2expΔΔct | 5.19 ± 0.327^** 2expΔΔct | 67.16 ± 5.06% | 56.56 ± 1.05^** % | 58.85 ± 2.17^*** % | number of neurons in the striatum (Nissl, NeuN), substance alone ([1]; mice given the substance alone): reduced the number of neurons in the striatum
2 | C=C(C)[C@@H]1CCC(C)=C[C@H]1C1=C(O)C(=O)C(CCCCC)=CC1=O [CBD-hydroxy-quinone] |  |  |  |  |  |  |  | activation of the Keap1/Nrf2 pathway (Keap1/Nrf2 pathway): activates the Keap1/Nrf2 pathway
3 | CCCCCc1cc(O)c(C/C=C(\C)CCC=C(C)C)c(O)c1 [CBG, cannabigerol] |  |  |  |  |  |  |  | levels of GSH in the brain (3NP-lesioned mice): restores the levels of GSH in the brain of 3NP-lesioned mice
4 | O=C(Nc1ccncc1)c1cc([N+](=O)[O-])ccc1Cl [T0070907, reference compound] | Neither VCE-003.2 nor T0070907 alone influenced the behavior of the animals | 1.45 ± 0.82 2expΔΔct | 1.57 ± 0.51 2expΔΔct | 1.54 ± 0.75 2expΔΔct | 115.82 ± 11.23% | 97.61 ± 27.44% | 92.18 ± 4.1% | 
5 | CCCCCC1=CC(=O)C(C/C=C(\C)CCC=C(C)C)=C(O)C1=O [VCE-003, reference compound] |  |  |  |  |  |  |  | induction of reactive oxygen species (ROS) (N2a cells [2]): induced reactive oxygen species (ROS); recovery after treatment with cysteamine (thiol-trapping reactivity) [3]: undetectable in the residue; activation of the Nrf2 pathway (Nrf2 pathway): activated the Nrf2 pathway; cell viability / cytotoxic activity (N2a cells [4]): clear cytotoxic activity at the highest concentrations tested
